This note sets out measurements from patent publication US9062078B2, “Substituted 7-azabicyles and their use as orexin receptor modulators” (priority 2013, dated 2015).

Where two headings read alike, the source gives them in different places.

One assay concerns the target human orexin 1 receptor (Homo sapiens (Human), UniProt O43613). Put plainly: Human orexin 1 receptor radioligand binding (competitive, [3H]-SB674042, CHO cell preparations).
A further assay has as its target human orexin 2 receptor (Homo sapiens (Human), UniProt O43614). Put plainly: Human orexin 2 receptor radioligand binding (competitive, [3H]-EMPA, HEK293 cell preparations).
[1] abbreviates: human orexin 2 receptor, [3H]-EMPA competition binding, read-out: hOX2 Ki (nm).
Setting [2] is: human orexin 1 receptor, [3H]-SB674042 competition binding, read-out: hOX1 Ki (nm).

Sequence of human orexin 1 receptor (O43613 whole entry): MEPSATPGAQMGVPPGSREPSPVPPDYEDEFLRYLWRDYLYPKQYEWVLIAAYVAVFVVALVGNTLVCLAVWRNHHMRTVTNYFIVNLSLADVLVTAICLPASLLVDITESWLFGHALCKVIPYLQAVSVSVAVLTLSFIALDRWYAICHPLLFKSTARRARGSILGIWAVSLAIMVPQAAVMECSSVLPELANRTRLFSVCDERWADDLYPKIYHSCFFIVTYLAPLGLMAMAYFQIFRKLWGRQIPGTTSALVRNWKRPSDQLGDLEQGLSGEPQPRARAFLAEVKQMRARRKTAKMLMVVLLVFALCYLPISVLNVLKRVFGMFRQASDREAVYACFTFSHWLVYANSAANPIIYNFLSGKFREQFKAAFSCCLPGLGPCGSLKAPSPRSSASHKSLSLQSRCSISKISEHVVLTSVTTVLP
Sequence of human orexin 2 receptor (O43614 whole entry): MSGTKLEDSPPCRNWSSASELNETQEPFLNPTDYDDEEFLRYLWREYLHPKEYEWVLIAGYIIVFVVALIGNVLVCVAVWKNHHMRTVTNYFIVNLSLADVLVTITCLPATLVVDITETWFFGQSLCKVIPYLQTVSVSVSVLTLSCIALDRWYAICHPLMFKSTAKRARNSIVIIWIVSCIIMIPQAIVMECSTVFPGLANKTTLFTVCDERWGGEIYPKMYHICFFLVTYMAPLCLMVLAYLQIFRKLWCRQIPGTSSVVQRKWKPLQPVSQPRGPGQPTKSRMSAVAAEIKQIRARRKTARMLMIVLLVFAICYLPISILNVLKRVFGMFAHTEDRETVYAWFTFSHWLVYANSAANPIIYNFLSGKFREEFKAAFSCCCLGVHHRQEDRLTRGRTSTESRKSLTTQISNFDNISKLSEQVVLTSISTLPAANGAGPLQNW

Turning to `CCOc1ccccc1C(=O)N1C2CCC1C(COc1ccc(F)cn1)C2` (racemic) [Example 165, (±)-(2-ethoxyphenyl)(2-(((5-fluoropyridin-2-yl)oxy)methyl)-7-azabicyclo[2.2.1]heptan-7-yl)methanone], the Ki (usually a measure of affinity in units of concentration, obtained from inhibition or displacement) on human orexin 1 receptor (hOX1 Ki (nm)) turned out to be 0.409 µM; on human orexin 2 receptor (setting [1]), 0.55 µM.
For `Cc1ccc(-n2nccn2)c(C(=O)N2C3CCC2C(COc2nc(C)cc(C)n2)C3)c1` (racemic) [Example 39, (±)-(2-(((4,6-dimethylpyrimidin-2-yl)oxy)methyl)-7-azabicyclo[2.2.1]heptan-7-yl)(5-methyl-2-(2H-1,2,3-triazol-2-yl)phenyl)methanone] the same measures were 0.029 µM and 0.027 µM.
On to `Cc1ccc(C(=O)N2C3CCC2C(COc2cccc(C(F)(F)F)n2)C3)c(-n2ccnn2)n1` (racemic) [Example 144, (±)-(6-methyl-2-(1H-1,2,3-triazol-1-yl)pyridin-3-yl)(2-(((6-(trifluoromethyl)pyridin-2-yl)oxy)methyl)-7-azabicyclo[2.2.1]heptan-7-yl)methanone], for which the Ki is 3.6 µM at human orexin 1 receptor (setting [2]) and 3.2 µM on human orexin 2 receptor (hOX2 Ki (nm)).
Turning to `O=C(c1cccc(F)c1-n1nccn1)N1C2CCC1C(COc1cccc(C(F)(F)F)n1)C2` (racemic) [Example 146, (±)-(3-fluoro-2-(2H-1,2,3-triazol-2-yl)phenyl)(2-(((6-(trifluoromethyl)pyridin-2-yl)oxy)methyl)-7-azabicyclo[2.2.1]heptan-7-yl)methanone], the Ki stood at 0.18 µM on human orexin 1 receptor (setting [2]) and 0.196 µM on human orexin 2 receptor (setting [1]).
For the compound `O=C(c1ccccc1-n1nccn1)N1C2CCC1C(Nc1cnc(C(F)(F)F)cn1)C2` (single isomer, unassigned) [Example 183b], the Ki at human orexin 1 receptor (hOX1 Ki (nm)) amounted to 0.028 µM; on human orexin 2 receptor (hOX2 Ki (nm)), 0.7 µM.
On to `Cc1ccc(-n2nccn2)c(C(=O)N2C3CCC2C(COc2nccc(C(F)(F)F)n2)C3)c1` (racemic) [Example 13, (±)-(5-methyl-2-(2H-1,2,3-triazol-2-yl)phenyl)(2-(((4-(trifluoromethyl)pyrimidin-2-yl)oxy)methyl)-7-azabicyclo[2.2.1]heptan-7-yl)methanone], for which the Ki on human orexin 1 receptor (hOX1 Ki (nm)) came to 0.118 µM; at human orexin 2 receptor (setting [1]) it was 0.109 µM.
For `Cc1nc(C(=O)N2C3CCC2C(COc2ccc(F)cn2)C3)c(-c2ccccc2F)s1` (racemic) [Example 29, (±)-(5-(2-fluorophenyl)-2-methylthiazol-4-yl)(2-(((5-fluoropyridin-2-yl)oxy)methyl)-7-azabicyclo[2.2.1]heptan-7-yl)methanone], the Ki at human orexin 1 receptor (setting [2]) stood at 0.011 µM; on human orexin 2 receptor (setting [1]) it was 0.06 µM.
On to `Cc1cccc(OCC2CC3CCC2N3C(=O)c2cccc(F)c2-n2nccn2)n1` (racemic) [Example 142, (±)-(3-fluoro-2-(2H-1,2,3-triazol-2-yl)phenyl)(2-(((6-methylpyridin-2-yl)oxy)methyl)-7-azabicyclo[2.2.1]heptan-7-yl)methanone], for which the values for the Ki on human orexin 1 receptor (setting [2]) and on human orexin 2 receptor (setting [1]) were 0.207 µM and 0.3 µM, respectively.
For `O=C(c1ccc(F)cc1-n1nccn1)N1[C@@H]2CC[C@H]1[C@H](Nc1cnc(C(F)(F)F)cn1)C2` [Example 257, (4-fluoro-2-(2H-1,2,3-triazol-2-yl)phenyl)((1S,2R,4R)-2-((5-(trifluoromethyl)pyrazin-2-yl)amino)-7-azabicyclo[2.2.1]heptan-7-yl)methanone] the same measures were 0.102 µM and 3.2 µM.
On to `Cc1ccc(C(=O)N2C3CCC2C(COc2cccc(C(F)(F)F)n2)C3)c(-n2nccn2)n1` (racemic) [Example 143, (±)-(6-methyl-2-(2H-1,2,3-triazol-2-yl)pyridin-3-yl)(2-(((6-(trifluoromethyl)pyridin-2-yl)oxy)methyl)-7-azabicyclo[2.2.1]heptan-7-yl)methanone], for which the Ki at human orexin 1 receptor (setting [2]) stood at 3.9 µM; at human orexin 2 receptor (hOX2 Ki (nm)) it was 4.6 µM.
